As a reminder, the viability is a read-out of living cells in per cent, often relative to untreated cells.

Results on 3 compounds are retold here after patent EP4631503A1, “AVL-292 OR MK-5108 FOR USE IN THE TREATMENT OF PDAC” (priority 2024, dated 2025).

The nature of one series: MTT cell viability assay. It is filed as cell-based. The settings on record: Homo sapiens, PANC-1, 48 h, Pane1 cells, two days. The procedure:
Pane1 and HPAF II cells were cultured with DMEM (D0822, Sigma-Aldrich) supplemented with 10% fetal bovine serum (FBS, F7524, Sigma-Aldrich), 1% P/S (P4333, Sigma-Aldrich). For siRNA treatment, 200,000 cells for a 6well plate and 20,000 cells per well for a 96well plate were seeded. siRNAs were purchased in Origene, CDCA5 (SR314367, Origene), KIF18A (SR313129, Origene), KIF23 (SR306300, Origene), TPX2 (SR307905, Origene), and cells were transfected by Lipofectamine® RNAiMAX (13778-075, Invitrogen) for two days. Small molecules which repositioned were purchased by AVL-292 (HY-18012, MCE), BCI-50 (HY-17553, MCE), MK-5108 (HY-13252, MCE), AZD1208 (HY-15604, MCE), SKA-31 (HY111655, MCE), Y-26763 (HY-101069, MCE), Estropipate (HY-B1361, MCE), Tiquizium (sc-474386, Santa Cruz), Acyclovir (HY-17422, MCE), and Cyproterone acetate (HY-13604, MCE) and dissolved into DMSO. Drugs were treated to cells for two days at 10µM. Cell viability was measured by MTT assay (M6494, ThermoFisher) by following the manufacturer's instructions. O.D values were detected with a microplate reader (Hidex Sense Beta Plus).
Background: Tetrazolium dyes change colour on reduction, which living cells bring about.

In a further series the test system is HPAF II. Kind of series: MTT cell viability assay. It is filed as cell-based. To be noted: Homo sapiens, 48 h. Here is the method: Pane1 and HPAF II cells were cultured with DMEM (D0822, Sigma-Aldrich) supplemented with 10% fetal bovine serum (FBS, F7524, Sigma-Aldrich), 1% P/S (P4333, Sigma-Aldrich). […] Drugs were treated to cells for two days at 10µM. Cell viability was measured by MTT assay (M6494, ThermoFisher) by following the manufacturer's instructions. O.D values were detected with a microplate reader (Hidex Sense Beta Plus).

Series [1] can be described thus: Western blot, apoptotic marker. It is filed as cell-based. The settings on record: apoptotic gene. Here is the method:
(§1) Pane1 and HPAF II cells were seeded into a 6-well plate at 200,000 cells per well concentration. After siRNA transfection and drug treatment, whole cell lysate was prepared with CelLytic M (C2978, Sigma-Aldrich) buffer and samples were prepared with 2x Laemmli Sample Buffer (1610737, Biorad) at 20µg protein lysate. SDS PAGE was performed Mini-PROTEAN® TGX™ Precast Gels (Bio-Rad) and transferred using Trans-Blot® Turbo™ Transfer System (Bio-Rad). CDCA5 (ab192237, abcam), KIF18A (ab72417, abcam), KIF23 (HPA068831, Sigma Aldrich), TPX2 (ab252944, abeam), Aurora A (ab108353, abeam), Aurora B (ab287960, abcam), PARP (9542S, Cell signaling), […] (ab2324, abcam), β-actin (ab8227, abeam), GAPDH (ab8245, abeam), and α-tubulin (ab7291, abcam) were blotted as a primary antibody for overnight. Secondary antibodies, Goat Anti-Rabbit HRP (ab205718) and goat anti-mouse IgG-HRP (sc2005, Santa Cruz Biotechnology, Inc.) were blotted for one hour. The protein band was detected with ImageQuantTMLAS 500 (29-0050-63, GE).
A general note: Immunoblotting shows a protein as a band on a membrane.

The next series deals with cleaved PRAP. Kind of series: Western blot, apoptotic marker. It is filed as cell-based. The settings on record: apoptotic gene. The procedure: as §1
The subject of a further series is AURKA. Kind of series: Western blot, protein expression level. It is filed as cell-based. The settings on record: cells, 10 µM, in words. The procedure: as §1
The next series deals with AURKB. The series is described as follows: Western blot, protein expression level. It is filed as cell-based. To be noted: cells, 10 µM, in words. The procedure: as §1
The test system of another series is CDCA5. The series is described as follows: Western blot, protein expression level. It is filed as cell-based. The settings on record: cells, 10 µM, in words. Here is the method:
as §1

The next series has as its system KIF18A. Kind of series: Western blot, protein expression level. To be noted: Pane1 cells, 10 µM, in words. The class given is cell-based. Here is the method: as §1
For another series, the system named is KIF23. The series is described as follows: Western blot, protein expression level. It is filed as cell-based. To be noted: cells, 10 µM, in words. Here is the method: as §1
A further series has as its system TPX2. The series is described as follows: Western blot, protein expression level. It is filed as cell-based. The settings on record: cells, 10 µM, in words. Here is the method: as §1
For series [2] the following is noted: taken orally, phase I trial; cited from earlier work.
Another series relates to PDAC. To be noted: phase II clinical trials; cited from earlier work.

Where two headings read alike, the source gives them in different places.

Regarding `C=CC(=O)Nc1cccc(Nc2nc(Nc3ccc(OCCOC)cc3)ncc2F)c1` [AVL-292], the viability at 10 µM amounted to 60.7% in “MTT cell viability assay” and 71.6% with HPAF II (HPAF-II). In series [1], the “protein expression level of Cas9” value is “increased”. Besides, the “protein expression level of cleaved PRAP” value with cleaved PRAP is listed as “increased”.

`O=C(O)[C@]1(Cc2cccc(Nc3nccs3)n2)CC[C@@H](Oc2cccc(Cl)c2F)CC1` [MK-5108]: the viability at 10 µM in “MTT cell viability assay” was 45.8%; in the series on HPAF II (HPAF II cells, 10µM, two days, read-out: viability), 69.5%. In addition, the AURKA expression change result in the series with AURKA was “over-expressed”. The AURKB expression change result in the series with AURKB is recorded as “no obvious effect”. Moreover, the CDCA5 expression change result with CDCA5 is given as “over-expressed”. In the series on KIF18A, the KIF18A expression change entry is recorded as “over-expressed”. The KIF23 expression change entry in the series with KIF23 is “over-expressed”. The TPX2 expression change entry with TPX2 is “over-expressed”. The “protein expression level of Cas9” value in series [1] was “increased”. Besides, in the series on cleaved PRAP, the “protein expression level of cleaved PRAP” value is “increased”. Moreover, in series [2], the tolerability in patients result is “well tolerated”.

As to `CN(C)C(=N)N=C(N)N` [Metformin], the “extended survival, average” value in the series on PDAC was 0.8 months.
